# Data reported in US20080226750A1, “Methods, Compositions and Articles of Manufacture for Treating Shock and Other Adverse Conditions” (priority 2006, published 2008).
# Like-named read-outs stand apart in the source and are kept apart here.
# Legend:
# [1] = tested on: Drosophila melanogaster embryos and larvae; test: Anoxia survival of fly embryos and larvae; format: in vivo
# Procedure: Preliminary experiments with larvae and embryos. […] After exposure to anoxia for 24 h, 7 pupae were formed from a pool of 0-19 h old embryos. However, 20 pupae were observed from a matched pool that was pretreated with CO2 for 10 min.
# Drosophila melanogaster [2] = test: Anoxia tolerance of adult flies after CO2 and/or H2S pretreatment; format: in vivo
# Procedure: Basic experimental setup. Adult flies were introduced into 35 mL tubes made of glass with a gas-tight rubber stopper (Balsh tubes). This was usually accomplished by anesthetizing flies with CO2, moving groups of flies to vials with food to recover for at least 2 hours, and then transferring them into the Balsh tube. To exchange the gaseous environment in the Balsh tube, two 18 gauge needles were inserted into the rubber stopper, and gas is blown into one of the needles at 100 mL/min. To prevent dessication, gasses were humidified by bubbling through 10 mL of water before passing it through the Balsch tube. The water in the bubbler is equilibrated with the gas for at least 20 minutes before starting the experiment.
# For “stopped-flow” experiments, gas exchange proceeded for 60 minutes before sealing the tube. For “low-flow” experiments, gas flow continued throughout the experiment. CO2 was from the house source (100%), and anoxic environments were established by flushing out room air with 100% nitrogen (N2). Care was taken to prevent introduction of room air into the system while switching the atmosphere from CO2 to N2.
# After anoxic treatment, oxygen was reintroduced into the Balsh tube by flushing with house air for 20 minutes. The rubber stopper was then removed and a food vial is inverted over the top of the Balsh tubes with Parafilm. […] Viability was scored at least 18 hours after the end of anoxic treatment. After two weeks, if the food vials contained larvae and/or pupae the flies were considered to be fertile.
# Drosophila melanogaster [3] = test: as above; format: in vivo; details: bubbler water not equilibrated with N2, 13 h anoxic exposure
# rats = details: cited from earlier work
# rat hemorrhage model = test: Controlled lethal hemorrhage (60% blood loss) in rats treated with H2S; format: in vivo
# Procedure: After surgical implantation of catheters and recovery, blood was removed from conscious animals in 40 minutes. […] Three hours after the end of the bleed, surviving animals were given one shed-blood volume of lactated ringers solution intravenously.
# C. elegans [4] = test: Thermotolerance of C. elegans adapted to H2S; format: in vivo
# From the text: A: Adapted animals survive at high temperature longer than unadapted controls. Adapted animals were exposed to high temperature in H2S as young adults.
# mice = test: Metabolic rate (CO2 production, O2 consumption) of mice with H2S and hypoxia; format: in vivo, mouse; details: Ta=13° C.
# Procedure: FIG. 14 Metabolic Rate of a Mouse in 5% Oxygen. […] Metabolic rate measured by CO2 output. […] At hour 6 the mouse was returned to room air and allowed to recover.
# FIG. 15 CO2 Production During Transition to Lethal Hypoxia. […] In addition, the change in CO2 production upon step-wise transition to 5% O2 for 1 hr followed by 4% O2 was measured. The percent change in CO2 production is plotted with standard error indicated.
# Relative carbon dioxide production and oxygen consumption of a mouse when pretreated and exposed to 5% O2. […] These experiments were done at Ta=13° C. so they could be compared to our previous studies. Values are the means from three animals and the error bars represent one standard deviation. p-values indicate the significance between the bars with the same symbols.
# To determine the rate of consumption of oxygen or the rate of production of carbon dioxide the biological matter is placed into a chamber that is sealed with two openings; for gas import and export. Gas (room air or other gases) is passed into the chamber at a given flow rate and out of the exit port to maintain approximately 1 atmosphere of pressure in the chamber. […]
# In addition, the change in CO2 production upon step-wise transition to 5% O2 for 1 hr followed by 4% O2 was measured.
# C. elegans [5] = test: Lifespan of C. elegans adapted to H2S; format: in vivo
# From the text: Animals raised in house air were moved to H2S-containing environments at the beginning of the lifespan experiment. The lifespan of these animals is 14.8±0.3 days, which is shorter than controls that remained in house air (mean lifespan 18.2±0.4 days).
# rodents and humans = details: 500 ppm; followed by recovery; cited from earlier work
# C. elegans [6] = test: Developmental rates, progeny and rate of egg-laying of C. elegans in H2S; format: in vivo
# From the text: The rate of egg-laying is tightly correlated with oocyte production, an energetically expensive activity that is a sensitive readout of metabolic capacity.
# mice in lethal hypoxia = test: Survival of H2S pre-treated mice in lethal hypoxia; format: in vivo, mouse; details: graded reduction of oxygen tension following H2S pre-treatment
# Procedure: FIG. 11 Survival of Mice in 5% Oxygen.
# Experiments were stopped at 60 minutes and if the animals still alive were returned to their cage.
# humans = details: cited from earlier work
smiles,measurement,setting,value
"O=C=O [CO2, carbon dioxide]",Survival of 0-24 h old embryos,[1]; 18.5 h anoxic exposure,develop to adulthood
same,Movement of larvae upon reoxygenation,"[1]; 24.5 h anoxia, only if pretreated",resume movement
same,Pupae formed from a pool of 0-19 h old embryos,"[1]; CO2 pretreatment 10 min, anoxia 24 h",20 pupae
same,Survival of adult flies,"Drosophila melanogaster [2]; 10 min CO2 pretreatment, 17, 22, and 24 h anoxia, low-flow, one experiment",no survival
same,Survival of adult flies,"Drosophila melanogaster [2]; CO2 10 minutes pretreatment (no H2S), 20 h anoxic exposure, low-flow",6%
same,Survival of adult flies,"Drosophila melanogaster [2]; CO2 pretreatment 30 minutes, 19 h anoxic exposure, stopped-flow",54%
same,Survival of adult flies,"Drosophila melanogaster [2]; CO2 pretreatment 90 minutes, 19 h anoxic exposure, stopped-flow",28%
same,Survival of adult flies,"Drosophila melanogaster [2]; CO2 pretreatment, anoxic exposure, then CO2 for 20 minutes immediately following",no flies survived
same,Survival of adult flies,Drosophila melanogaster [2]; CO2 without subsequent anoxic exposure,No survival
same,Effect of CO2 pretreatment in cold treatment experiments,Drosophila melanogaster [2]; flies kept at 4° C. during anoxia,did not have a noticeable difference
same,Survival versus no pretreatment,"Drosophila melanogaster [2]; low-flow, 100% CO2 10 min, trend (FIG. 9)",greater survival
same,Time of CO2 administration giving the highest fraction of surviving flies,"Drosophila melanogaster [2]; stopped-flow, 22 h anoxic exposure",0.5 to 5 min
same,Survival of adult flies,Drosophila melanogaster [3],no flies survived
"O=C=O [CO, carbon dioxide]",Flies recovered,"Drosophila melanogaster [2]; treated only with CO2 for 10 min before the anoxic exposure, control experiment",11%
"S [H2S, Hydrogen sulfide]",Effect of perinatal exposure,"rats; 20 or 50 ppm H2S, 7 hours per day from gestation through post-natal day 21",longer dendritic branches with reduced aborization of cerebellar Purkinje cells
same,Effects of repeated gas exposure,"rats; 80 ppm or greater H2S, 3 hours per day on five consecutive days (Struve et al. 2001)","Significant reductions in motor activity, water maze performance and body temperature"
same,"Behavioral toxicity, learning","rats; moderate levels (Partlo et al., 2001)",interferes with the ability of rats to learn a baited radial arm maze task
same,"Behavioral toxicity, avoidance","rats; moderate levels, immediately after the end of the exposure (Higuchi and Fukamachi)",inhibits discriminated avoidance responses
same,Effects in exposed rat pups,"rats; perinatal study, 80 ppm H2S (Dorman et al. 2000)","no neuropathological effects or altered motor activity, passive avoidance, or acoustic startle response"
same,Survival of adult flies,"Drosophila melanogaster [2]; 50 ppm H2S in room air prior to anoxia, 18.5 h",25%
same,Survival of adult flies,"Drosophila melanogaster [2]; 50 ppm H2S in the CO2 pretreatment, removed as anoxia is established, 20 h",35%
same,Survival of adult flies,"Drosophila melanogaster [2]; CO2 10 min, H2S/CO2 10 min, N2/H2S 10 min, then N2, 15 h anoxic exposure, low-flow",50%
same,Complete recovery,rat hemorrhage model; 300 ppm H2S in room air from 20 min into the 40 min bleed to end of bleed,85.7%
same,Rats that survived hemorrhage and 3 hour shock period and recovered completely,"rat hemorrhage model; 300 ppm H2S, survivors/treated",6/7
same,Blood bicarbonate content ([HCO3^−]),rat hemorrhage model; End of bleed,21 ± 3 mmol/L
same,Blood bicarbonate content ([HCO3^−]),rat hemorrhage model; Pre-bleed,32 ± 3 mmol/L
same,Survival at high temperature,C. elegans [4]; adapted animals at high temperature in room air,7.3 h
same,H2S-treated animals alive when all untreated animals had died,"C. elegans [4]; average, data not shown",80%
same,Mean survival time at high temperature,"C. elegans [4]; sir-2.1(ok434) animals grown in H2S, high temperature in H2S (n=20)",9.8 ± 0.3 h
same,Mean survival time at high temperature,C. elegans [4]; unadapted animals moved to high temperature in 50 ppm H2S,2.1 h
same,Mean survival time at high temperature,"C. elegans [4]; wild-type adapted animals, high temperature in H2S (n=136)",65.5 h
same,Drop in metabolic rate,mice; 150 ppm H2S 20 min pretreatment then long exposure to 5% oxygen,over 50 fold
same,Drop in metabolic rate,"mice; H2S alone for the same period of time (80 ppm, six hours)",10 fold
same,Mean lifespan,C. elegans [5]; adapted animals in H2S (n=80),22.6 ± 1.0 days
same,Increase of maximum lifespan,C. elegans [5]; animals grown in H2S versus untreated controls,4 days
same,Lifespan,"C. elegans [5]; raised in house air, moved to H2S at the beginning of the lifespan experiment",14.8 ± 0.3 days
same,Lifespan,C. elegans [5]; sir-2.1(ok434) animals raised in H2S (n=47),20.0 ± 1.6 days
same,Effect of exposure to extreme levels,rodents and humans,sudden collapse and unconsciousness
same,Rate of egg-laying,"C. elegans [6]; adapted (wild-type in 50 ppm H2S), in 2% O2",4.9 ± 1.4 embryos per hour
same,Rate of egg-laying,"C. elegans [6]; adapted (wild-type in 50 ppm H2S), in 2% O2 + H2S",4.7 ± 1.2 embryos per hour
same,Rate of egg-laying,"C. elegans [6]; adapted (wild-type in 50 ppm H2S), in H2S",7.8 ± 2.0 embryos per hour
same,"embryogenesis, hours ± SEM (n)","C. elegans [6]; adapted: wild-type animals in 50 ppm H2S, median time for 2-cell embryos to hatch at room temperature",13.3 ± 0.4 (34) hours
same,"post-embryonic, hours ± SEM (n)","C. elegans [6]; adapted: wild-type animals in 50 ppm H2S, median time for starved first-stage larvae to become gravid adults",49.3 ± 0.2 (15) hours
same,Numbers of progeny,C. elegans [6]; animals raised in low H2S,221±35
same,Rate of egg-laying,"C. elegans [6]; clk-1(qm30), in 2% O2 + H2S",2.5 ± 1.0 embryos per hour
same,Rate of egg-laying,"C. elegans [6]; clk-1(qm30), in H2S",3.2 ± 1.1 embryos per hour
same,Rate of egg-laying,"C. elegans [6]; unadapted (wild-type grown in room air), in H2S, ± SD, n = 10",8.3 ± 3.0 embryos per hour
same,Rate of egg-laying,"C. elegans [6]; unadapted, in 2% O2 + H2S",4.5 ± 1.6 embryos per hour
same,Lowest oxygen tension survived for an hour,mice in lethal hypoxia,2.5%
"[C-]#[O+] [carbon monoxide, Carbon monoxide]",Effect on exposed humans,humans; 50 ppm,no symptoms
same,Effect on exposed humans,"humans; 200 ppm, within two-three hours",slight headache
same,Effect on exposed humans,"humans; 400 ppm, within one to two hours",frontal headache
same,Effect on exposed humans,"humans; 800 ppm, within 45 minutes","dizziness, nausea, and/or convulsions"
same,Effect on an organism,"humans; around 1000 ppm, exposure for more than around 1-2 minutes",expire
